Experimental findings from PMC5218480 (PLoS ONE, 2017) are described below.

This experiment concerns MV-4-11 cells. The experiment can be described thus: Gene expression microarray analysis (Affymetrix PrimeView) and GSEA. The format is cell-based, human. The arrangement: RFU PODN (11730768_x_at) / Fold change /veh PODN (11730768_x_at) / RFU LINC00158 (11744669_a_at) / Fold change /veh LINC00158 (11744669_a_at) / RFU DUSP10 (11751237_a_at) / Fold change /veh DUSP10 (11751237_a_at) / RFU ID3 (11757404_x_at) / Fold change /veh ID3 (11757404_x_at) / RFU PLEKHG5 (11737974_s_at) / Fold change /veh PLEKHG5 (11737974_s_at) / RFU LRRC4B (11730491_at) / Fold change /veh LRRC4B (11730491_at) / RFU GIMAP4 (11747438_a_at) / Fold change /veh GIMAP4 (11747438_a_at) / RFU KRT8 (11758183_x_at) / Fold change /veh KRT8 (11758183_x_at) / RFU CNN1 (11734310_a_at) / Fold change /veh CNN1 (11734310_a_at) / RFU VPS37D (11726825_at) / Fold change /veh VPS37D (11726825_at) / RFU C10orf10 (11716522_x_at) / Fold change /veh C10orf10 (11716522_x_at) / RFU KIR2DL2 /// KIR2DL4 /// KIR2DL5A /// KIR2DL5B /// KIR2DS1 /// KIR2DS2 /// KIR2DS3 /// KIR2DS4 /// KIR3DL3 /// KIR3DL3 /// KIR3DS1 (11738374_at) / Fold change /veh KIR2DL2 /// KIR2DL4 /// KIR2DL5A /// KIR2DL5B /// KIR2DS1 /// KIR2DS2 /// KIR2DS3 /// KIR2DS4 /// KIR3DL3 /// KIR3DL3 /// KIR3DS1 (11738374_at) / RFU C1QL1 (11718748_at) / Fold change /veh C1QL1 (11718748_at) / RFU TMPRSS4 (11747572_a_at) / Fold change /veh TMPRSS4 (11747572_a_at) / RFU HAMP (11756126_x_at) / Fold change /veh HAMP (11756126_x_at) / RFU RNFT2 (11725882_a_at) / Fold change /veh RNFT2 (11725882_a_at) / RFU NR4A2 (11747474_a_at) / Fold change /veh NR4A2 (11747474_a_at) / RFU ABCC12 (11746883_a_at) / Fold change /veh ABCC12 (11746883_a_at) / RFU TMEM136 (11760407_x_at) / Fold change /veh TMEM136 (11760407_x_at) / RFU CLDN22 /// WWC2 (11732394_at) / Fold change /veh CLDN22 /// WWC2 (11732394_at) / RFU HLA-DPB1 (11760878_x_at) / Fold change /veh HLA-DPB1 (11760878_x_at) / RFU SPINT1 (11716480_a_at) / Fold change /veh SPINT1 (11716480_a_at) / RFU GAP43 (11754022_s_at) / Fold change /veh GAP43 (11754022_s_at) / RFU A4GNT (11735810_at) / Fold change /veh A4GNT (11735810_at) / RFU PRB3 (11715151_x_at) / Fold change /veh PRB3 (11715151_x_at) / RFU TUBB4B (11761932_at) / Fold change /veh TUBB4B (11761932_at) / RFU CAPN14 (11732068_a_at) / Fold change /veh CAPN14 (11732068_a_at) / RFU TMCC2 (11721928_a_at) / Fold change /veh TMCC2 (11721928_a_at) / RFU IRGQ (11745062_a_at) / Fold change /veh IRGQ (11745062_a_at) / RFU FAM174B (11720279_a_at) / Fold change /veh FAM174B (11720279_a_at) / RFU TMPRSS4 (11748680_a_at) / Fold change /veh TMPRSS4 (11748680_a_at) / RFU FAM212B (11763350_a_at) / Fold change /veh FAM212B (11763350_a_at) / RFU PLEKHG5 (11743358_a_at) / Fold change /veh PLEKHG5 (11743358_a_at) / RFU ZSCAN30 (11745921_a_at) / Fold change /veh ZSCAN30 (11745921_a_at) / RFU CMKLR1 (11741424_a_at) / Fold change /veh CMKLR1 (11741424_a_at) / RFU LOC101060620 /// MAPK8IP1 (11723275_at) / Fold change /veh LOC101060620 /// MAPK8IP1 (11723275_at) / RFU SPTSSB (11747773_x_at) / Fold change /veh SPTSSB (11747773_x_at) / RFU PRSS12 (11739890_at) / Fold change /veh PRSS12 (11739890_at) / RFU BIN1 (11741810_x_at) / Fold change /veh BIN1 (11741810_x_at) / RFU WNT11 (11732464_a_at) / Fold change /veh WNT11 (11732464_a_at) / RFU C10orf10 (11716521_a_at) / Fold change /veh C10orf10 (11716521_a_at) / RFU C5orf56 (11738089_at) / Fold change /veh C5orf56 (11738089_at) / RFU CYB561 (11721691_x_at) / Fold change /veh CYB561 (11721691_x_at) / RFU ANKRD19P (11752326_a_at) / Fold change /veh ANKRD19P (11752326_a_at) / RFU OR2T12 /// OR2T33 /// OR2T8 (11738714_s_at) / Fold change /veh OR2T12 /// OR2T33 /// OR2T8 (11738714_s_at) / RFU VCAN (11748164_a_at) / Fold change /veh VCAN (11748164_a_at) / RFU JSRP1 (11732532_at) / Fold change /veh JSRP1 (11732532_at) / RFU KRTAP10-11 (11738290_x_at) / Fold change /veh KRTAP10-11 (11738290_x_at) / RFU MYO3A (11730013_a_at) / Fold change /veh MYO3A (11730013_a_at) / RFU EBF3 (11725865_a_at) / Fold change /veh EBF3 (11725865_a_at) / RFU CAMK2N1 (11719241_x_at) / Fold change /veh CAMK2N1 (11719241_x_at) / RFU C5orf56 (11738088_a_at) / Fold change /veh C5orf56 (11738088_a_at) / RFU OLFML3 (11715873_a_at) / Fold change /veh OLFML3 (11715873_a_at) / RFU LOC100653217 /// NTM (11731650_a_at) / Fold change /veh LOC100653217 /// NTM (11731650_a_at) / RFU MAPK11 (11762145_a_at) / Fold change /veh MAPK11 (11762145_a_at) / RFU FIZ1 (11724087_x_at) / Fold change /veh FIZ1 (11724087_x_at) / RFU OASL (11726364_x_at) / Fold change /veh OASL (11726364_x_at) / RFU SOX15 (11748057_x_at) / Fold change /veh SOX15 (11748057_x_at) / RFU CD79A (11719716_a_at) / Fold change /veh CD79A (11719716_a_at) / RFU HIST1H1D (11736915_at) / Fold change /veh HIST1H1D (11736915_at) / RFU CASKIN2 (11723855_a_at) / Fold change /veh CASKIN2 (11723855_a_at) / RFU LOC730098 (11760151_x_at) / Fold change /veh LOC730098 (11760151_x_at) / RFU OR4N2 (11742367_at) / Fold change /veh OR4N2 (11742367_at) / RFU PRRT2 (11749266_a_at) / Fold change /veh PRRT2 (11749266_a_at) / RFU SNX32 (11753110_a_at) / Fold change /veh SNX32 (11753110_a_at) / RFU CDHR5 (11726645_a_at) / Fold change /veh CDHR5 (11726645_a_at) / RFU RCAN1 (11760418_a_at) / Fold change /veh RCAN1 (11760418_a_at) / RFU FAM167A (11723789_a_at) / Fold change /veh FAM167A (11723789_a_at) / RFU FAM26E (11764081_at) / Fold change /veh FAM26E (11764081_at) / RFU ISYNA1 (11749810_s_at) / Fold change /veh ISYNA1 (11749810_s_at) / RFU ACY1 (11761880_at) / Fold change /veh ACY1 (11761880_at) / RFU 11764098_at / Fold change /veh 11764098_at / RFU SAMD14 (11745864_x_at) / Fold change /veh SAMD14 (11745864_x_at) / RFU NPB (11741838_a_at) / Fold change /veh NPB (11741838_a_at) / RFU TMPRSS6 (11731388_a_at) / Fold change /veh TMPRSS6 (11731388_a_at) / RFU KRTAP10-2 (11738614_at) / Fold change /veh KRTAP10-2 (11738614_at) / RFU ARHGAP8 /// PRR5-ARHGAP8 (11727945_x_at) / Fold change /veh ARHGAP8 /// PRR5-ARHGAP8 (11727945_x_at) / RFU KRTAP5-7 /// NADSYN1 (11734609_at) / Fold change /veh KRTAP5-7 /// NADSYN1 (11734609_at) / RFU RASL12 (11751679_a_at) / Fold change /veh RASL12 (11751679_a_at) / RFU CDKN2B (11736163_a_at) / Fold change /veh CDKN2B (11736163_a_at) / RFU PRF1 (11729649_at) / Fold change /veh PRF1 (11729649_at) / RFU, ZNF638 /// ZNF638-IT1 / Fold change vs veh, ZNF638 /// ZNF638-IT1 / RFU, PANK3 / Fold change vs veh, PANK3 / RFU, SH3YL1 / Fold change vs veh, SH3YL1 / RFU, ZEB2 / Fold change vs veh, ZEB2 / RFU, NRIP1 / Fold change vs veh, NRIP1 / RFU, PTTG1IP / Fold change vs veh, PTTG1IP / RFU, CAPN2 / Fold change vs veh, CAPN2 / RFU, MED14 / Fold change vs veh, MED14 / RFU, SNORA58 / Fold change vs veh, SNORA58 / RFU, C1orf63 / Fold change vs veh, C1orf63 / RFU, LRRFIP1 / Fold change vs veh, LRRFIP1 / RFU, NDUFAF7 / Fold change vs veh, NDUFAF7 / RFU, SLC12A2 / Fold change vs veh, SLC12A2 / RFU, IBTK / Fold change vs veh, IBTK / RFU, ESF1 / Fold change vs veh, ESF1 / Fold change vs veh, TMEM50B / RFU, TAOK1 / Fold change vs veh, TAOK1 / RFU, ACBD3 / Fold change vs veh, ACBD3 / RFU, TMA16 / Fold change vs veh, TMA16 / RFU, RWDD3 / Fold change vs veh, RWDD3 / RFU, BCAT1 / Fold change vs veh, BCAT1 / RFU, EDEM3 / Fold change vs veh, EDEM3 / RFU, TMEM33 / Fold change vs veh, TMEM33 / RFU, WDR75 / Fold change vs veh, WDR75 / RFU, AHCTF1 / Fold change vs veh, AHCTF1 / RFU, TFRC / Fold change vs veh, TFRC / RFU, ZDHHC17 / Fold change vs veh, ZDHHC17 / RFU, NOM1 / Fold change vs veh, NOM1 / RFU, ARL8B / Fold change vs veh, ARL8B / RFU, ZBTB11 / Fold change vs veh, ZBTB11 / RFU, TAMM41 / Fold change vs veh, TAMM41 / RFU, KIAA1704 /// LOC100996395 / Fold change vs veh, KIAA1704 /// LOC100996395 / RFU, ING1 / Fold change vs veh, ING1 / RFU, TRMT61B / Fold change vs veh, TRMT61B / RFU, FUBP3 / Fold change vs veh, FUBP3 / RFU, TP53 / Fold change vs veh, TP53 / RFU, TNKS2 / Fold change vs veh, TNKS2 / RFU, ZFP14 / Fold change vs veh, ZFP14 / RFU, ACTR2 / Fold change vs veh, ACTR2 / RFU, PPP3R1 / Fold change vs veh, PPP3R1 / RFU, PIK3R1 / Fold change vs veh, PIK3R1 / RFU, HNRNPA1 / Fold change vs veh, HNRNPA1 / RFU, RNF170 / Fold change vs veh, RNF170 / RFU, ZNF28 / Fold change vs veh, ZNF28 / RFU, RNGTT / Fold change vs veh, RNGTT / RFU, OGT / Fold change vs veh, OGT / RFU, BRD1 / Fold change vs veh, BRD1 / RFU, MARS / Fold change vs veh, MARS / RFU, ZNF655 / Fold change vs veh, ZNF655 / RFU, FAHD1 / Fold change vs veh, FAHD1 / RFU, BDP1 / Fold change vs veh, BDP1 / RFU, LRRCC1 / Fold change vs veh, LRRCC1 / RFU, ARID1A / Fold change vs veh, ARID1A / RFU, ZNF146 / Fold change vs veh, ZNF146 / RFU, ZNF330 / Fold change vs veh, ZNF330 / RFU, GPN3 / Fold change vs veh, GPN3 / RFU, C9orf123 / Fold change vs veh, C9orf123 / RFU, N4BP2L2 / Fold change vs veh, N4BP2L2 / RFU, ARFIP1 / Fold change vs veh, ARFIP1 / RFU, FAM179B / Fold change vs veh, FAM179B / RFU, BCL10 / Fold change vs veh, BCL10 / RFU, UHRF1BP1L / Fold change vs veh, UHRF1BP1L / RFU, BET1 / Fold change vs veh, BET1 / RFU, CNOT2 / Fold change vs veh, CNOT2 / RFU, ZNF268 / Fold change vs veh, ZNF268 / Fold change vs veh, ZNF507 / RFU, DGCR2 / Fold change vs veh, DGCR2 / RFU, WDSUB1 / Fold change vs veh, WDSUB1 / Fold change vs veh, HSP90B1 /// MIR3652 / RFU, ADSS / Fold change vs veh, ADSS / RFU, GK / Fold change vs veh, GK / RFU, ZNF148 / Fold change vs veh, ZNF148 / RFU, TAF9 / Fold change vs veh, TAF9 / RFU, SLC1A5 / Fold change vs veh, SLC1A5 / RFU, SLMO2 / Fold change vs veh, SLMO2 / RFU, ABCC4 / Fold change vs veh, ABCC4 / RFU, LOC101060439 /// RAP1B / Fold change vs veh, LOC101060439 /// RAP1B / RFU, RFX7 / Fold change vs veh, RFX7 / RFU, GTPBP10 / Fold change vs veh, GTPBP10 / RFU, CNEP1R1 / Fold change vs veh, CNEP1R1 / RFU, BIVM-ERCC5 /// ERCC5 / Fold change vs veh, BIVM-ERCC5 /// ERCC5 / RFU, ILF3 / Fold change vs veh, ILF3 / RFU 11762660_at / Fold change /veh 11762660_at / RFU VCAN (11757783_s_at) / Fold change /veh VCAN (11757783_s_at) / RFU DDX43 (11728927_at) / Fold change /veh DDX43 (11728927_at) / RFU KRT8 (11758188_x_at) / Fold change /veh KRT8 (11758188_x_at) / RFU NKD1 (11759106_at) / Fold change /veh NKD1 (11759106_at) / RFU SRD5A1 (11742802_a_at) / Fold change /veh SRD5A1 (11742802_a_at) / RFU TPSAB1 /// TPSB2 (11721975_s_at) / Fold change /veh TPSAB1 /// TPSB2 (11721975_s_at) / RFU GSTM3 (11746129_a_at) / Fold change /veh GSTM3 (11746129_a_at) / RFU IL23R (11737362_x_at) / Fold change /veh IL23R (11737362_x_at) / RFU TMEM51 (11727254_a_at) / Fold change /veh TMEM51 (11727254_a_at) / RFU PIWIL2 (11732686_x_at) / Fold change /veh PIWIL2 (11732686_x_at) / RFU ORM1 (11744905_x_at) / Fold change /veh ORM1 (11744905_x_at) / RFU CCDC152 (11743942_at) / Fold change /veh CCDC152 (11743942_at) / RFU ECM1 (11717891_a_at) / Fold change /veh ECM1 (11717891_a_at) / RFU IL23R (11748794_a_at) / Fold change /veh IL23R (11748794_a_at) / RFU TNFAIP8L3 (11732012_x_at) / Fold change /veh TNFAIP8L3 (11732012_x_at) / RFU MBOAT4 (11741988_at) / Fold change /veh MBOAT4 (11741988_at) / RFU 11764193_at / Fold change /veh 11764193_at / RFU TMEM53 (11763286_at) / Fold change /veh TMEM53 (11763286_at) / RFU MAGEB2 (11727129_at) / Fold change /veh MAGEB2 (11727129_at) / RFU TMEM200A (11744735_a_at) / Fold change /veh TMEM200A (11744735_a_at) / RFU CCDC152 (11751479_a_at) / Fold change /veh CCDC152 (11751479_a_at) / RFU FAM211A (11726209_a_at) / Fold change /veh FAM211A (11726209_a_at) / RFU RGS16 (11746705_a_at) / Fold change /veh RGS16 (11746705_a_at) / RFU VCAN (11755009_s_at) / Fold change /veh VCAN (11755009_s_at) / RFU RHOB (11743442_s_at) / Fold change /veh RHOB (11743442_s_at) / RFU RGS16 (11720943_a_at) / Fold change /veh RGS16 (11720943_a_at) / RFU RGS16 (11720944_at) / Fold change /veh RGS16 (11720944_at) / RFU, VPS4B / Fold change vs veh, VPS4B / RFU, CREB1 / Fold change vs veh, CREB1 / RFU, DNAJC13 / Fold change vs veh, DNAJC13 / RFU, GNAQ / Fold change vs veh, GNAQ / RFU, CDK5R1 / Fold change vs veh, CDK5R1 / RFU, ZRANB3 / Fold change vs veh, ZRANB3 / RFU, CUL4A / Fold change vs veh, CUL4A / RFU, CCNY / Fold change vs veh, CCNY / RFU, UFL1 / Fold change vs veh, UFL1 / RFU, COG3 / Fold change vs veh, COG3 / RFU, DIAPH2 / Fold change vs veh, DIAPH2 / RFU, SKA2 / Fold change vs veh, SKA2 / RFU, AFF3 / Fold change vs veh, AFF3 / RFU, LMF1 / Fold change vs veh, LMF1 / RFU, IPO11 / Fold change vs veh, IPO11 / RFU, DFFB / Fold change vs veh, DFFB / RFU, FOXP1 / Fold change vs veh, FOXP1 / RFU, CARD8 / Fold change vs veh, CARD8 / RFU, STRN3 / Fold change vs veh, STRN3 / RFU, ADK / Fold change vs veh, ADK / RFU, RASSF2 / Fold change vs veh, RASSF2 / RFU, WIPF1 / Fold change vs veh, WIPF1 / RFU, LARP1B / Fold change vs veh, LARP1B / RFU, RASA1 / Fold change vs veh, RASA1 / RFU, RB1 / Fold change vs veh, RB1 / RFU, PPFIA1 / Fold change vs veh, PPFIA1 / RFU, MAT2A / Fold change vs veh, MAT2A / RFU, CCT5 / Fold change vs veh, CCT5 / RFU, WDR92 / Fold change vs veh, WDR92 / RFU, CUX1 / Fold change vs veh, CUX1 / RFU, TTC7A / Fold change vs veh, TTC7A / RFU, TMEM135 / Fold change vs veh, TMEM135 / RFU, DEPTOR / Fold change vs veh, DEPTOR / RFU, CPM / Fold change vs veh, CPM / RFU, DNAJB6 / Fold change vs veh, DNAJB6 / RFU, CACNA2D3 / Fold change vs veh, CACNA2D3 / RFU, DTX4 / Fold change vs veh, DTX4 / RFU, TFCP2 / Fold change vs veh, TFCP2 / RFU, GMCL1 /// GMCL1P1 / Fold change vs veh, GMCL1 /// GMCL1P1 / RFU, AEBP2 / Fold change vs veh, AEBP2 / RFU, SNHG1 /// SNORD22 /// SNORD25 /// SNORD26 /// SNORD27 /// SNORD28 /// SNORD29 /// SNORD31 / Fold change vs veh, SNHG1 /// SNORD22 /// SNORD25 /// SNORD26 /// SNORD27 /// SNORD28 /// SNORD29 /// SNORD31 / Fold change (Aza/veh), C12orf56 (ProbeSet 11735607_a_at) / Fold change (ACY-1035/veh), C12orf56 (ProbeSet 11735607_a_at) / Fold change (Aza/veh), FGFR1OP (ProbeSet 11751329_s_at) / Fold change (ACY-1035/veh), FGFR1OP (ProbeSet 11751329_s_at) / Fold change (Aza/veh), VPS36 (ProbeSet 11739960_a_at) / Fold change (ACY-1035/veh), VPS36 (ProbeSet 11739960_a_at) / RFU SYPL1 (11715823_x_at) / Fold change /veh SYPL1 (11715823_x_at) / RFU IGFBP7 (11715501_s_at) / Fold change /veh IGFBP7 (11715501_s_at) / RFU REEP3 (11722064_at) / Fold change /veh REEP3 (11722064_at) / RFU IGLL1 (11728026_x_at) / Fold change /veh IGLL1 (11728026_x_at): dose or concentration left out as unconfirmed. To be noted: ProbeSet 11731610_x_at; LIST B.

The structures appear in SMILES notation.

For `Nc1ncn([C@@H]2O[C@H](CO)[C@@H](O)[C@H]2O)c(=O)n1` [azacitidine], the “RFU, KIAA1704 /// LOC100996395” value worked out at 92.56 RFU.
